Several values for one entry are separate records, joined by “and”; a condition that tells them apart may be missing. Equal values may be shown once. Inconclusive results and toxic doses are left out.

T/C data for 15 molecules are collected here from PubChem BioAssay AID256 (DTP/NCI, 2004).

This assay relates to CD2F1 mice, L1210 leukemia ip, survival T/C. Nature of the assay: NCI In Vivo Anticancer Drug Screen. Data for tumor model L1210 Leukemia (intraperitoneal) in CD2F1 (CDF1) mice. The following applies: higher = longer survival. In short, it runs like this: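 Transplantable tumor in mice; compound-treated vs vehicle-treated groups. Read-out = treated/control ratio of the measured endpoint.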

Setting [1] is: endpoint: mean survival time, dose: 100.0 mg/kg/injection, schedule: Q04DX002 (ip), vehicle: saline with Tween-80.
The mark [2] stands for this setting: endpoint: mean survival time, dose: 200.0 mg/kg/injection, schedule: Q04DX002 (ip), vehicle: saline with Tween-80.
The mark [3] stands for this setting: endpoint: mean survival time, dose: 400.0 mg/kg/injection, schedule: Q04DX002 (ip), vehicle: saline with Tween-80.
[4] abbreviates: endpoint: mean survival time, dose: 100.0 mg/kg/injection, schedule: Q01DX001 (ip), vehicle: saline with Tween-80.
The mark [5] stands for this setting: endpoint: mean survival time, dose: 200.0 mg/kg/injection, schedule: Q01DX001 (ip), vehicle: saline with Tween-80.
Setting [6] is: endpoint: mean survival time, dose: 100.0 mg/kg/injection, schedule: Q04DX003 (ip), vehicle: saline with Tween-80.
Setting [7] is: endpoint: mean survival time, dose: 200.0 mg/kg/injection, schedule: Q04DX003 (ip), vehicle: saline with Tween-80.
[8] abbreviates: endpoint: mean survival time, dose: 400.0 mg/kg/injection, schedule: Q04DX003 (ip), vehicle: saline with Tween-80.
Setting [9] is: endpoint: mean survival time, dose: 100.0 mg/kg/injection, schedule: Q01DX009 (ip), vehicle: saline with Tween-80.
The mark [10] stands for this setting: endpoint: mean survival time, dose: 200.0 mg/kg/injection, schedule: Q01DX009 (ip), vehicle: saline with Tween-80.
Where [11] appears, read: endpoint: mean survival time, dose: 400.0 mg/kg/injection, schedule: Q01DX009 (ip), vehicle: saline with Tween-80.

For the molecule `CC1OC(OC2C(O)CC(OC3C(O)CC(OC4CCC5(C)C(CCC6C5CCC5(C)C(C7=CC(=O)OC7)CCC65O)C4)OC3C)OC2C)CC(O)C1O` (stereo not given), the T/C reads like this: (endpoint: median survival time, dose: 0.5 mg/kg/injection, schedule: Q01DX005 (iv), vehicle: water) 109 % of control; (endpoint: median survival time, dose: 0.5 mg/kg/injection, schedule: Q01DX010 (ip), vehicle: water) 106 % of control; (endpoint: median survival time, dose: 1.0 mg/kg/injection, schedule: Q01DX005 (iv), vehicle: water) 108 % of control; (endpoint: median survival time, dose: 1.0 mg/kg/injection, schedule: Q01DX010 (ip), vehicle: water) 108 % of control; (endpoint: median survival time, dose: 1.0 mg/kg/injection, schedule: Q04DX003 (ip), vehicle: water) 101 % of control; (endpoint: median survival time, dose: 1.0 mg/kg/injection, schedule: Q04DX003 (iv), vehicle: water) 111 % of control. Also, the T/C (endpoint: median survival time, dose: 2.0 mg/kg/injection, schedule: Q01DX005 (iv), vehicle: water) is 97 % of control; the T/C (endpoint: median survival time, dose: 2.0 mg/kg/injection, schedule: Q01DX010 (ip), vehicle: water) is 109 % of control; the T/C (endpoint: median survival time, dose: 2.0 mg/kg/injection, schedule: Q04DX003 (ip), vehicle: water) was 101 % of control; the T/C (endpoint: median survival time, dose: 2.0 mg/kg/injection, schedule: Q04DX003 (iv), vehicle: water) was 109 % of control; the T/C (endpoint: median survival time, dose: 4.0 mg/kg/injection, schedule: Q01DX005 (iv), vehicle: water) is 108 % of control; the T/C (endpoint: median survival time, dose: 4.0 mg/kg/injection, schedule: Q01DX010 (ip), vehicle: water) was 108 % of control. The T/C was 107 % of control (endpoint: median survival time, dose: 4.0 mg/kg/injection, schedule: Q04DX003 (ip), vehicle: water); 110 % of control (endpoint: median survival time, dose: 4.0 mg/kg/injection, schedule: Q04DX003 (iv), vehicle: water); 90 % of control (endpoint: median survival time, dose: 8.0 mg/kg/injection, schedule: Q01DX005 (iv), vehicle: water); 98 % of control (endpoint: median survival time, dose: 8.0 mg/kg/injection, schedule: Q04DX003 (ip), vehicle: water); 110 % of control (endpoint: median survival time, dose: 8.0 mg/kg/injection, schedule: Q04DX003 (iv), vehicle: water); 101 % of control (endpoint: median survival time, dose: 16.0 mg/kg/injection, schedule: Q04DX003 (ip), vehicle: water). Also, under “endpoint: median survival time, dose: 16.0 mg/kg/injection, schedule: Q04DX003 (iv), vehicle: water”, the T/C is 76 % of control.
As to `CCCc1nc2ccccc2c(=O)n1/N=C/c1ccsc1`, the T/C runs as follows: (endpoint: mean survival time, dose: 100.0 mg/kg/injection, schedule: Q01DX009 (ip), vehicle: saline sonified) 100 % of control; (endpoint: mean survival time, dose: 200.0 mg/kg/injection, schedule: Q01DX009 (ip), vehicle: saline sonified) 102 % of control; (endpoint: mean survival time, dose: 400.0 mg/kg/injection, schedule: Q01DX009 (ip), vehicle: saline sonified) 93 % of control.
Take `COc1c(C)c2c(c(OC(C)=O)c1CC(=O)O)C(=O)OC2`: the T/C under setting [1] was 108 % of control, the T/C under setting [2] is 100 % of control and the T/C under setting [3] is 100 % of control.
Consider `C/C=C1/C[C@@H](C)[C@@](C)(O)C(=O)OCC2=CC[N+]3([O-])CC[C@@H](OC1=O)[C@@H]23` (stereo not given in full), for which the T/C is, setting by setting: under setting [4], 103 % of control; under setting [5], 97 % of control.
Consider `CC(=O)OCCC/C(=C/c1c[nH]c2ccccc12)[N+](=O)[O-]`, for which the T/C (endpoint: mean survival time, dose: 100.0 mg/kg/injection, schedule: Q01DX001 (ip), vehicle: saline) is 97 % of control; the T/C (endpoint: mean survival time, dose: 200.0 mg/kg/injection, schedule: Q01DX001 (ip), vehicle: saline) was 102 % of control; the T/C (endpoint: mean survival time, dose: 400.0 mg/kg/injection, schedule: Q01DX001 (ip), vehicle: saline) was 109 % of control.
Regarding `COc1cc(-c2ccc(N)c(OC)c2)ccc1N`, the T/C under setting [4] is 100 % of control; the T/C (endpoint: mean survival time, dose: 100.0 mg/kg/injection, schedule: Q01DX009 (ip), vehicle: saline) was 96 % of control and 100 % of control; the T/C under setting [1] is 102 % of control; the T/C (endpoint: mean survival time, dose: 100.0 mg/kg/injection, schedule: Q04DX003 (ip), vehicle: saline) was 97 % of control; the T/C under setting [5] was 96 % of control; the T/C (endpoint: mean survival time, dose: 200.0 mg/kg/injection, schedule: Q01DX009 (ip), vehicle: saline) is 100 % of control and 102 % of control. In addition, the T/C is, setting by setting: under setting [2], 100 % of control; (endpoint: mean survival time, dose: 200.0 mg/kg/injection, schedule: Q04DX003 (ip), vehicle: saline) 94 % of control; (endpoint: mean survival time, dose: 400.0 mg/kg/injection, schedule: Q01DX001 (ip), vehicle: saline with Tween-80) 103 % of control; under setting [3], 100 % of control; (endpoint: mean survival time, dose: 400.0 mg/kg/injection, schedule: Q04DX003 (ip), vehicle: saline) 103 % of control.
In the case of `OCC1OC(n2cnc3cc4ccccc4cc32)C(O)C1O` (stereo not given), the T/C runs as follows: (endpoint: median survival time, dose: 13.25 mg/kg/injection, schedule: Q01DX005 (ip), vehicle: saline with Tween-80) 100 % of control; (endpoint: median survival time, dose: 26.5 mg/kg/injection, schedule: Q01DX005 (ip), vehicle: saline with Tween-80) 98 % of control; (endpoint: median survival time, dose: 53.0 mg/kg/injection, schedule: Q01DX005 (ip), vehicle: saline with Tween-80) 88 % of control; (endpoint: median survival time, dose: 106.0 mg/kg/injection, schedule: Q01DX005 (ip), vehicle: saline with Tween-80) 91 % of control.
In the case of `Cc1cccc(SCC(=O)O)c1`, the T/C runs as follows: (endpoint: mean survival time, dose: 100.0 mg/kg/injection, schedule: Q04DX003 (ip), vehicle: other) 96 % of control; (endpoint: mean survival time, dose: 200.0 mg/kg/injection, schedule: Q04DX003 (ip), vehicle: other) 96 % of control; (endpoint: mean survival time, dose: 400.0 mg/kg/injection, schedule: Q04DX003 (ip), vehicle: other) 94 % of control.
Regarding `COc1c(C)c(Br)c(OC)c2ccccc12`, the T/C was 94 % of control under setting [6], 94 % of control under setting [7] and 100 % of control under setting [8].
Take `COC(=O)[C@H]1[C@H]2C[C@@H]3c4[nH]c5cc(OC)ccc5c4CCN3C[C@H]2C[C@@H](OC(=O)c2cc(OC)c(OC)c(OC)c2)[C@@H]1OC`: the T/C is 95 % of control (endpoint: mean survival time, dose: 3.0 mg/kg/injection, schedule: Q01DX009 (ip), vehicle: saline with Tween-80); 94 % of control (endpoint: mean survival time, dose: 6.0 mg/kg/injection, schedule: Q01DX009 (ip), vehicle: saline with Tween-80); 90 % of control (endpoint: mean survival time, dose: 12.5 mg/kg/injection, schedule: Q04DX003 (ip), vehicle: saline with Tween-80); 89 % of control (endpoint: mean survival time, dose: 50.0 mg/kg/injection, schedule: Q04DX003 (ip), vehicle: saline with Tween-80).
Regarding `CC(=O)OCC(Br)C(Br)COC(C)=O` (stereo not given), the T/C is 100 % of control under setting [6], 100 % of control under setting [7] and 97 % of control under setting [8].
On to `O=C(/C=C/c1ccccc1)Cc1ccccc1`, for which the T/C runs as follows: under setting [9], 93 % of control; under setting [6], 92 % of control; under setting [10], 98 % of control; under setting [7], 93 % of control; under setting [11], 88 % of control; under setting [8], 93 % of control.
As to `C=CCOC(=O)CCCCCCCCC(=O)OCC=C`, the T/C is 97 % of control under setting [9], 96 % of control under setting [6], 95 % of control under setting [10] and 94 % of control under setting [7].
In the case of `COc1c(C)ccc([N+](=O)[O-])c1OC`, the T/C under setting [9] was 97 % of control, the T/C under setting [10] is 98 % of control and the T/C under setting [11] was 98 % of control.
For the molecule `Cc1ncc(CNC(=O)N(CCCl)N=O)c(N)n1`, the T/C was 159 % of control (endpoint: mean survival time, dose: 3.12 mg/kg/injection, schedule: Q01DX009 (ip), vehicle: saline); 180 % of control (endpoint: mean survival time, dose: 3.13 mg/kg/injection, schedule: Q01DX009 (ip), vehicle: saline with Tween-80); 195 % of control (endpoint: mean survival time, dose: 6.25 mg/kg/injection, schedule: Q01DX009 (ip), vehicle: saline with Tween-80); 236 % of control (endpoint: mean survival time, dose: 6.25 mg/kg/injection, schedule: Q01DX009 (ip), vehicle: saline); 357 % of control (endpoint: mean survival time, dose: 12.5 mg/kg/injection, schedule: Q01DX009 (ip), vehicle: saline with Tween-80); 288 % of control (endpoint: mean survival time, dose: 12.5 mg/kg/injection, schedule: Q01DX009 (ip), vehicle: saline). Further, the T/C runs as follows: (endpoint: mean survival time, dose: 17.5 mg/kg/injection, schedule: Q04DX002 (ip), vehicle: saline) 337 % of control; (endpoint: mean survival time, dose: 25.0 mg/kg/injection, schedule: Q01DX009 (ip), vehicle: saline with Tween-80) 220 % of control; (endpoint: mean survival time, dose: 35.0 mg/kg/injection, schedule: Q04DX002 (ip), vehicle: saline) 316 % of control.
